# According to patent US20240262791A1, “B[…] […] AMINO ACIDS” (priority 2021, published 2024):
# Key:
# [1] = test system: Afb7X; assay: Afb7X and MBP-Z(24F-FSY) cross-linking; type: biochemical; conditions: MBP-Z(24F-FSY) with Afb7X, PBS pH 7.4, 37° C., 12 h
# Experimental: We also introduced F-FSY into the maltose binding protein (MBP) fused Z protein at position 24 (MBP-Z(24F-FSY)). The purified MBP-Z(24F-FSY) was analyzed by electrospray ionization time-of-flight mass spectrometry (ESI-TOF MS). A peak observed at 50829 Da corresponds to intact MBP-Z containing F-FSY at site 24 (data not shown). We then tested the reactivities of F-FSY towards amino acid residue using the binding complex of MBP-Z and the Zspa affibody (Afb). Upon Afb-Z binding, F-FSY would be place in close proximity with the residue at position 7 of Afb (Afb7X) and would form a covalent bond with the targeting residue, causing protein-protein cross-linking.
# 0.5 mg/ml Afb7X and 1 mg/ml MBP-Z(24F-FSY) were incubated in PBS (pH 7.4) at 37° C. for 12 h, after which 1 j.tL reaction solution was extracted and mixed with 10 j.tL Laemmli loading buffer. The mixture was heated to 95° C. for 10 min and then loaded for SDS-PAGE, after which the gel was stained with Coomassie blue and imaged with ChemiDoc™ MP imaging system (Bio-rad).
# [2] = biological target: T1, WT Spike RBD (Severe acute respiratory syndrome coronavirus 2, UniProt P0DTC2); type: biochemical, SARS-CoV-2
# T1 construct: SARS-CoV-2 spike protein, RBD, 6His tag (S protein) was purchased from ACRObiosystems (#SRD-C52H3); purchased ACRObiosystems #SRD-C52H3
# [3] = test system: HEK293T cells; type: cell-based; conditions: 0 to 1 mM SFY, 24-48 h
# Experimental: 2×10^4 cells/well of HEK293T cells were seeded in a 96-well plate. On the next day, the media were replaced with fresh DMEM media supplemented with 0, 0.0625, 0.125, 0.25, 0.5, or 1 mM of SFY. The SFY-treated and control cells were cultured for an additional 24-48 h at 37° C. and then analyzed with CellTiter-Blue® Cell Viability Assay following the manufacturer's instructions.
# [4] = test system: nucleoside monophosphates (NMPs: AMP, UMP, CMP, or GMP); assay: In vitro incubations of NMPs and SFY; conditions: 50 mM SFY, 50 mM NMP, 37° C.
# Experimental: In addition, to check if SFY could cross-link all four nucleotides, we incubated 50 mM SFY with 50 mM different nucleoside monophosphates (NMPs: AMP, UMP, CMP, or GMP) at 37° C. for 16 hours.
# 50 mM SFY (HCl salt) and 50 mM NMP was incubated in DI H2O. 50 mM NaOH was added to neutralize the HCl salt. The mixture was incubated at 37° C. for 48 h. Then the reaction mixture was diluted for 50 times in H2O/acetonitrile (50/50, v/v, with 0.1% trifluoracetic acid) and subjected to mass spectrum analysis using positive mode. Mass spectrum analysis was performed on SCIEX MDS, 3200 Q TRAP system.
# [5] = test system: GST; assay: Cross-linking of GST-103SFY-107X in live mammalian cells; type: cell-based; conditions: SFY at site 103 of GST, residue 107 varied, HEK293T cells
# Experimental: […] of pcDNA-GST-103TAG-107X (X=A, H, Y or K)^3 and […] of pNEU-MmSFYRS-4xU6M15 were co-transfected into target cells using 5 μL of lipofectamine 2000 following the manufacturer's instructions. Six hours post transfection, the media were replaced with complete DMEM media with or without 1 mM SFY. The cells were incubated at 37° C. for additional 48 h, collected, and applied for immunoblot analysis.
# [6] = SFY crosslinking of protein residues and RNA in cells; type: cell-based; conditions: E. coli and HEK293T cells
# Experimental: FIG. 4B: Fluorescence confocal images HEK293 cells expressing EGFP(40TAG) gene and the Mm-tRNA^Pyl/MmSFYRS with and without 1 mM SFY. FIG. 4C: Flow cytometric analysis of SFY incorporation into EGFP(40TAG) in HEK293 cells using Ma-tRNA^Pyl/MaSFYRS. […] FIGS. 4E-4F: Analysis of crosslinking of Afb(24SFY) with MBP-Z(7X) in E. coli cells. Western blot of E. coli cell lysate (FIG. 4E); SDS-PAGE of proteins His-tag purified from E. coli (FIG. 4F). Maltose binding protein (MBP) was fused to the N-terminus of Z protein to better separate Z from Afb in size. […] FIG. 4H: Western blot analysis of lysate of HEK293T cells expressing GST(103SFY-107X). X is the target residue indicated. FIG. 4I: Western blot analysis E. coli cells expressing Hfq with SFY incorporated at site 25 or 49. Cell lysate samples were treated with or without RNase before loading, and an anti-His antibody was used to detect the 6×His tag appended at the C-terminus of expressed Hfq.
# [7] = test system: HeLa-EGFP (182TAG) reporter cells; assay: Genetic incorporation of mFSY in HeLa-EGFP (182TAG) reporter cells; type: cell-based; conditions: no mFSY added or 1 mM mFSY added
# From the text: FIGS. 12A-12C: Genetic incorporation of mFSY into proteins in mammalian cells. FIG. 12A: FACS analysis of mFSY incorporation into HeLa-EGFP (182TAG) cells. Negative control cells were either not transfected with any plasmid or were not treated with mFSY. FACS data is representative of three biological replicates. FIG. 12B: Bar graph showing total EGFP fluorescence percentage from FACS data. Error bar: s.d., n=3. FIG. 12C: Fluorescence microscopy and brightfield images of HeLa-EGFP (182TAG) reporter cells under two conditions: no mFSY added or 1 mM mFSY added.
# [8] = healthy volunteers in phase I trial, patients in phase II trial; cited from earlier work
molecule,measurement,setting,value
NC(Cc1ccc(OS(=O)(=O)F)c(F)c1)C(=O)O (centres unmarked) [FFY],residues forming a covalent bond with F-FSY,[1],"form a covalent bond with Lys, His and Tyr"
same,PERx reaction rate over FSY in the mNB6 system,[2],240%
"COc1ccc(CC(N)C(=O)O)cc1S(=O)(=O)F (centres unmarked) [SFY, o-sulfonyl fluoride-O-methyltyrosine]",toxicity to HEK293T cells,[3],did not observe obvious toxicity
same,cross-linking adducts with NMPs detected by MS,[4],Cross-linking adducts of SFY with all four NMPs were detected
same,residues reacting with SFY placed in proximity,[5],"react with His, Tyr, and Lys"
same,crosslinking capability of SFY,[6],"allows crosslinking of His, Tyr, Lys residues in protein and of RNA in cells"
"NC(Cc1cccc(OS(=O)(=O)F)c1)C(=O)O [mFSY, meta-fluorosulfate-L-tyrosine]",EGFP fluorescence (mFSY incorporation),[7],Fluorescence is only seen after the addition of mFSY
rhACE2,safety and tolerability,[8],safe and well tolerated
